In assay [1] the test system is Hck-SH3. The settings on record: ITC, ref [12]; cited from earlier work.
In another assay the target is Fyn(WT)-SH3 (Homo sapiens, UniProt P06241). In words: Yeast two-hybrid assay. Format: cell-based. Particulars: negative control for RT-loop selection.
Assay [2] has as its system Hck-SH3. In words: Yeast two-hybrid assay. In kind it is cell-based, human. The settings on record: negative control for RT-loop selection.
Another assay relates to Fyn(R96I)-SH3. As to the kind of experiment: Yeast two-hybrid assay. Format: cell-based, human. The settings on record: negative control for RT-loop selection.

Where no end group is shown, it is not given here.

Fyn(WT)-SH3, sequence (P06241 82-143 limits assumed): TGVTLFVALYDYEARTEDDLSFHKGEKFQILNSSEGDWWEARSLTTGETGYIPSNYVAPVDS

Turning to PTPPTPAPRTMPPTKPQPPARPPP [ALIXPI], the “binding characteristics toward Hck-SH3 compared with ALIXV+PRR” value in the assay with Hck-SH3 [1] was “did not fully reproduce the binding characteristics of ALIXV+PRR toward Hck-SH3”.

Consider “SAM68: Src-associated in mitosis 68 kDa (SAM68) protein”, for which the “yeast two-hybrid interaction strength” value in the assay with Fyn(WT)-SH3, with Hck-SH3 [2] and in the assay on Fyn(R96I)-SH3 was “interacted with comparable strength with every SH3 domain” each time.
